Data from patent EP1184367A1, “AMIDE DERIVATIVES” (Sumitomo Pharmaceuticals Company, Limited, priority 1999, dated 2000).
Read-outs that look alike come from different tables or passages of the source.

Test system: constant white light-induced retinal damage
Description: Male Wistar rats (7 weeks old, Charles River Japan Inc.) were purchased and maintained in cyclic light / dark environment (8:00-20:00 / light term) for one week, and then placed within the apparatus for constant white light exposure for two days. The constant white light exposure apparatus is a covered breeding box of 1020 mm in length, 425 mm in width, 520 mm in height, which is made of acryl boards and of which all inner side are covered with mirrors. Light was continuously irradiated all the day long (24 hours) using white fluorescent lamp attached to the ceiling of the apparatus. The average illuminance in the apparatus was 174.2 foot candle. After two days in the apparatus, the rats were moved to a darkroom and dark adapted for 1-4 hours. The rats were anesthetized with pentobarbital and placed in a stereotaxic frame. After topical mydriatica was given and electrodes were put on corneal surface, center of the forehead and the lower part of the lobe, the response in active potential of retina to the flash stimulation with fixed energy was determined from the recorded ERG (electroretinogram). The damage of retina was evaluated by the decrease in the amplitude of ERG a-wave which originated from retinal outer nuclear cells (photoreceptors). […]

SMILES	% recovery (Mean±S.E.M.) (rat, in vivo, po, 100 mg/kg)	% recovery (Mean±S.E.M.) (rats, 100 mg/kg orally administered in 0.5 % methylcellulose, just before constant light exposure and at the same time on the next day, two days of exposure, ERG a-wave amplitude relative to normal control and MC groups, five rats in a group)
CC(C)(COC(=O)CCC(=O)O)NC(=O)c1ccc(F)cc1F [Example 3, N-(2-(3-Carboxypropionyloxy)-1,1-dimethylethyl)-2,4-difluorobenzamide]	14.0 ± 3.1%	
CC(C)(COC(=O)CN)NC(=O)c1ccc(F)cc1F.O=S(=O)(O)c1ccccc1 [Example 4, N-(2-Glycyloxy-1,1-dimethylethyl)-2,4-difluorobenzamide benzenesulfonate]		19.5 ± 3.3%
